Assay [1] has as its target T1, Adrenergic β2 (H292 cells) (Homo sapiens, UniProt P07550).
T1 construct: endogenous in cells; host or cells: H292 cells
The experiment in a line: Assay for Adrenergic β2 Mediated cAMP Production (concentration response, AlphaScreen cAMP detection). The format is cell-based. The settings on record: for EC50: cAMP production, 60 minutes at room temperature, 300 μM rolipram, read-out: β2 pEC50 (converted); for β2 Intrinsic activity: fraction relative to the maximum activity determined for formoterol. In outline:
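H292 cells plated overnight, pre-treated with rolipram (300 μM final) 10 min, then compound 60 min at room temperature in HBSS/10 mM HEPES pH7.4/5 mM glucose, 1% DMSO. Lysate cAMP read by AlphaScreen against a cAMP standard curve; 4-parameter fit gives pEC50 and intrinsic activity as fraction of formoterol maximum.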
(Bead proximity is the source of the signal in Alpha formats.)

For assay [2], the target named is T2, human muscarinic acetylcholine M3 receptor (M3-ACh) (Homo sapiens, UniProt P20309).
T2 construct: expressed in transfected cells; host or cells: CHO-K1 (Chinese Hamster Ovary) cell membranes
The assay is described as follows: Muscarinic 3 Receptor Binding Assay ([3H]NMS competition, SPA). The settings on record: [3H]NMS 0.1 nM, CHO-K1 cell membranes, 16 hours at room temperature; read-out: M3 pIC50 (converted). The gist of the method: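 Competition SPA binding of 0.1 nM [3H]NMS (quarter Kd) to membranes from CHO-K1 cells expressing human M3, in 20 mM HEPES pH 7.4, 5 mM MgCl2, 1% DMSO. Incubated 16 h at room temperature; non-specific binding with 1 µM atropine. pIC50 from 50% reduction of specific binding.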

Assay [3] addresses T1, Adrenergic β2 (H292 cells). The assay is described as follows: Adrenergic β2 Mediated cAMP Production, single concentration 1 μM. The format is cell-based. Conditions: NCI-H292, 1 μM compound, percentage of the maximum response generated by 1E-07M formoterol, read-out: β2 (% effect at 1 μM). In outline:
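H292 cells were plated overnight, pre-treated with 300 μM rolipram for 10 min, then exposed to compound at 1 μM final (1% DMSO) for 60 min at room temperature. cAMP in the lysates was measured by AlphaScreen against a standard curve and expressed as % of the maximal response to 1E-07M formoterol.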

The target of assay [4] is T2, human muscarinic acetylcholine M3 receptor (M3-ACh). The experiment in a line: Muscarinic 3 Receptor Binding Assay, % inhibition specific binding at 1 μM. Conditions: 1 μM compound, % inhibition specific [3H]-NMS binding. The gist of the method:
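Competition binding of 0.1 nM [3H]NMS to membranes from CHO-K1 cells expressing human M3, SPA format, with compound at 1 μM in 20 mM HEPES pH 7.4, 5 mM MgCl2, 1% DMSO. Incubated 16 h at room temperature; non-specific binding defined by 1 μM atropine; value is % inhibition of specific binding.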

SMILES strings stand for the structures.

T2 sequence (P20309 whole entry): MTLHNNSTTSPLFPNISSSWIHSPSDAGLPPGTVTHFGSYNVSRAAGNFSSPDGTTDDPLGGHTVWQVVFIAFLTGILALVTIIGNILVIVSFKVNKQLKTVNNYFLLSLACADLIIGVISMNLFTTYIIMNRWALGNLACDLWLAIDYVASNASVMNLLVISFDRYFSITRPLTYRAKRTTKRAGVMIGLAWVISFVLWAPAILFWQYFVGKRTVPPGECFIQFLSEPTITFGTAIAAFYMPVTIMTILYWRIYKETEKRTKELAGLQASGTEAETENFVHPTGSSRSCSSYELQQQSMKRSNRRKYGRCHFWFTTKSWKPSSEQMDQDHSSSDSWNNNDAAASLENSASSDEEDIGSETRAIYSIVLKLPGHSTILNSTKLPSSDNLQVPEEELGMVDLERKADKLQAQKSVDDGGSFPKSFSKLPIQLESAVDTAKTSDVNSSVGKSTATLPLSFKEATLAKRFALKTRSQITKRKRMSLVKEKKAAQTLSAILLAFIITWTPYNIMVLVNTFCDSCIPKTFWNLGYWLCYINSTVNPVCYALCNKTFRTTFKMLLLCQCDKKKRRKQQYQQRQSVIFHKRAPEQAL
T1 sequence (P07550 whole entry): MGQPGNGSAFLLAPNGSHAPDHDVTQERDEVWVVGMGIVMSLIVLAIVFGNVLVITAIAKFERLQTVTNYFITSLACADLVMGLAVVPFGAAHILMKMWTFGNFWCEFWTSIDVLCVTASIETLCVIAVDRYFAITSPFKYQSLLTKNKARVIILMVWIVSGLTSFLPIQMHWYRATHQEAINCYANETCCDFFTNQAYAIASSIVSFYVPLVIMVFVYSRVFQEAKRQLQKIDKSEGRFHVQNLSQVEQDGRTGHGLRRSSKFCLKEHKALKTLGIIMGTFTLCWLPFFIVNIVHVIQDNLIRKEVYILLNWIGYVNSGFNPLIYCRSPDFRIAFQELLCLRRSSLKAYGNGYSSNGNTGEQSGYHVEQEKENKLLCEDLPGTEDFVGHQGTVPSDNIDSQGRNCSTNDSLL

Take `Cc1ccc(C(=O)N2CCOC3(CCN(CCCCCCCCCNC[C@H](O)c4ccc(O)c5[nH]c(=O)sc45)CC3)C2)o1` [Example 198, (R)-4-hydroxy-7-(1-hydroxy-2-(9-(4-(5-methylfuran-2-carbonyl)-1-oxa-4,9-diazaspiro[5.5]undecan-9-yl)nonylamino)ethyl)benzo[d]thiazol-2(3H)-one]: in assay [1], the EC50 is 12.6 nM and the “β2 Intrinsic activity” value is recorded as 0.8. The IC50 in assay [2] is 3.16 nM. For the same compound, the activation at 1 µM in assay [3] is 82%. The inhibition at 1 µM in assay [4] is 99%.
`O=C(c1csc(C(F)(F)F)n1)N1CCOC2(CCN(CCCCCCCCCNC[C@H](O)c3ccc(O)c4[nH]c(=O)sc34)CC2)C1` [Example 217, (R)-4-hydroxy-7-(1-hydroxy-2-(9-(4-(2-(trifluoromethyl)thiazole-4-carbonyl)-1-oxa-4,9-diazaspiro[5.5]undecan-9-yl)nonylamino)ethyl)benzo[d]thiazol-2(3H)-one]: in assay [1], the EC50 is 39.8 nM and the “β2 Intrinsic activity” value is recorded as 0.9. In addition, the IC50 in assay [2] is 0.631 nM. Besides, the activation at 1 µM in assay [3] stood at 103%. The inhibition at 1 µM in assay [4] was determined as 100%.
On to `Cc1csc(C(=O)N2CCOC3(CCN(CCCCCCCCCNC[C@H](O)c4ccc(O)c5[nH]c(=O)sc45)CC3)C2)c1` [Example 213, (R)-4-hydroxy-7-(1-hydroxy-2-(9-(4-(4-methylthiophene-2-carbonyl)-1-oxa-4,9-diazaspiro[5.5]undecan-9-yl)nonylamino)ethyl)benzo[d]thiazol-2(3H)-one], for which, in assay [1], the EC50 is 12.6 nM and the “β2 Intrinsic activity” value was 0.8. Further, the IC50 in assay [2] is 0.794 nM. Besides, the activation at 1 µM in assay [3] worked out at 87%. Moreover, the inhibition at 1 µM in assay [4] stood at 99%.
For `Cc1ccoc1C(=O)N1CCOC2(CCN(Cc3cc(F)cc(CCNC[C@H](O)c4ccc(O)c5[nH]c(=O)sc45)c3)CC2)C1` [Example 127, (R)-7-(2-(3-fluoro-5-((4-(3-methylfuran-2-carbonyl)-1-oxa-4,9-diazaspiro[5.5]undecan-9-yl)methyl)phenethylamino)-1-hydroxyethyl)-4-hydroxybenzo[d]thiazol-2(3H)-one], the activation at 1 µM in assay [3] turned out to be 97%. Also, in assay [4], the inhibition at 1 µM came to 78%.
For the compound `O=C(c1cc2ccccc2[nH]1)N1CCOC2(CCN(Cc3cc(F)cc(CCNC[C@H](O)c4ccc(O)c5[nH]c(=O)sc45)c3)CC2)C1` [Example 120, (R)-7-(2-(3-((4-(1H-indole-2-carbonyl)-1-oxa-4,9-diazaspiro[5.5]undecan-9-yl)methyl)-5-fluorophenethylamino)-1-hydroxyethyl)-4-hydroxybenzo[d]thiazol-2(3H)-one], the activation at 1 µM in assay [3] was 101%. Moreover, the inhibition at 1 µM in assay [4] came out at 82%.
For `COc1ccc(OC)c(C(=O)N2CCOC3(CCN(Cc4cc(F)cc(CCNC[C@H](O)c5ccc(O)c6[nH]c(=O)sc56)c4)CC3)C2)c1` [Example 136, (R)-7-(2-(3-((4-(2,5-dimethoxybenzoyl)-1-oxa-4,9-diazaspiro[5.5]undecan-9-yl)methyl)-5-fluorophenethylamino)-1-hydroxyethyl)-4-hydroxybenzo[d]thiazol-2(3H)-one], the activation at 1 µM in assay [3] stood at 111%. In addition, the inhibition at 1 µM in assay [4] turned out to be 26%.
In the case of `O=C(Cc1ccsc1)N1CCOC2(CCN(Cc3cc(F)cc(CCNC[C@H](O)c4ccc(O)c5[nH]c(=O)sc45)c3)CC2)C1` [Example 126, (R)-7-(2-(3-fluoro-5-((4-(2-(thiophen-3-yl)acetyl)-1-oxa-4,9-diazaspiro[5.5]undecan-9-yl)methyl)phenethylamino)-1-hydroxyethyl)-4-hydroxybenzo[d]thiazol-2(3H)-one], the activation at 1 µM in assay [3] was found to be 98%. Besides, the inhibition at 1 µM in assay [4] was 50%.
As for `O=C(c1cc2ccccc2s1)N1CCOC2(CCN(CCOc3ccc(CNC[C@H](O)c4ccc(O)c5[nH]c(=O)sc45)cc3)CC2)C1` [Example 235, (R)-7-(2-(4-(2-(4-(benzo[b]thiophene-2-carbonyl)-1-oxa-4,9-diazaspiro[5.5]undecan-9-yl)ethoxy)benzylamino)-1-hydroxyethyl)-4-hydroxy-benzo[d]thiazol-2(3H)-one], the activation at 1 µM in assay [3] was 97%. The inhibition at 1 µM in assay [4] is 29%.
As to `O=C(c1cnc2ccccc2c1)N1CCOC2(CCN(Cc3cc(F)cc(CCNC[C@H](O)c4ccc(O)c5[nH]c(=O)sc45)c3)CC2)C1` [Example 172, (R)-7-(2-(3-fluoro-5-((4-(quinoline-3-carbonyl)-1-oxa-4,9-diazaspiro[5.5]undecan-9-yl)methyl)phenethylamino)-1-hydroxyethyl)-4-hydroxybenzo[d]thiazol-2(3H)-one], the activation at 1 µM in assay [3] turned out to be 98%. Besides, the inhibition at 1 µM in assay [4] was 19%.
`CC(C)c1cc(C(=O)N2CCOC3(CCN(Cc4cc(F)cc(CCNC[C@H](O)c5ccc(O)c6[nH]c(=O)sc56)c4)CC3)C2)no1` [Example 179, (R)-7-(2-(3-fluoro-5-((4-(5-isopropylisoxazole-3-carbonyl)-1-oxa-4,9-diazaspiro[5.5]undecan-9-yl)methyl)phenethylamino)-1-hydroxyethyl)-4-hydroxybenzo[d]thiazol-2(3H)-one]: the activation at 1 µM in assay [3] worked out at 95%. Also, 1 µM produced 66% inhibition in assay [4].
Taken in the same sequence, the figures for `O=C(c1ccc2ccccc2n1)N1CCOC2(CCN(Cc3cc(F)cc(CCNC[C@H](O)c4ccc(O)c5[nH]c(=O)sc45)c3)CC2)C1` [Example 119, (R)-7-(2-(3-fluoro-5-((4-(quinoline-2-carbonyl)-1-oxa-4,9-diazaspiro[5.5]undecan-9-yl)methyl)phenethylamino)-1-hydroxyethyl)-4-hydroxybenzo[d]thiazol-2(3H)-one] were 100% and 60%.
Taken in the same sequence, the figures for `O=C(c1ccnn1-c1ccccc1)N1CCOC2(CCN(Cc3cc(F)cc(CCNC[C@H](O)c4ccc(O)c5[nH]c(=O)sc45)c3)CC2)C1` [Example 160, (R)-7-(2-(3-fluoro-5-((4-(1-phenyl-1H-pyrazole-5-carbonyl)-1-oxa-4,9-diazaspiro[5.5]undecan-9-yl)methyl)phenethylamino)-1-hydroxyethyl)-4-hydroxybenzo[d]thiazol-2(3H)-one] were 91% and 5%.
As to `Cc1nc2cc(C(=O)N3CCOC4(CCN(Cc5cc(F)cc(CCNC[C@H](O)c6ccc(O)c7[nH]c(=O)sc67)c5)CC4)C3)ccc2n1C` [Example 162, (R)-7-(2-(3-((4-(1,2-dimethyl-1H-benzo[d]imidazole-5-carbonyl)-1-oxa-4,9-diazaspiro[5.5]undecan-9-yl)methyl)-5-fluorophenethylamino)-1-hydroxyethyl)-4-hydroxybenzo[d]thiazol-2(3H)-one], the activation at 1 µM in assay [3] came to 91%. In assay [4], this compound registered an inhibition at 1 µM of 8%.
`CC(C)(C(=O)N1CCOC2(CCN(Cc3cc(F)cc(CCNC[C@H](O)c4ccc(O)c5[nH]c(=O)sc45)c3)CC2)C1)c1ccccc1` [Example 176, (R)-7-(2-(3-fluoro-5-((4-(2-methyl-2-phenylpropanoyl)-1-oxa-4,9-diazaspiro[5.5]undecan-9-yl)methyl)phenethylamino)-1-hydroxyethyl)-4-hydroxybenzo[d]thiazol-2(3H)-one]: the activation at 1 µM in assay [3] was 87%. The compound also had an inhibition at 1 µM in assay [4] of 16%.
For the compound `O=C(CCCc1ccccc1)N1CCOC2(CCN(CCCCCCCCCNC[C@H](O)c3ccc(O)c4[nH]c(=O)sc34)CC2)C1` [Example 188, (R)-4-hydroxy-7-(1-hydroxy-2-(9-(4-(4-phenylbutanoyl)-1-oxa-4,9-diazaspiro[5.5]undecan-9-yl)nonylamino)ethyl)benzo[d]thiazol-2(3H)-one], the activation at 1 µM in assay [3] was determined as 93%. Further, the inhibition at 1 µM in assay [4] was 96%.
On the same counts, the results for `Cc1cccc2nc(C(=O)N3CCOC4(CCN(Cc5cc(F)cc(CCNC[C@H](O)c6ccc(O)c7[nH]c(=O)sc67)c5)CC4)C3)cn12` [Example 133, (R)-7-(2-(3-fluoro-5-((4-(5-methylimidazo[1,2-a]pyridine-2-carbonyl)-1-oxa-4,9-diazaspiro[5.5]undecan-9-yl)methyl)phenethylamino)-1-hydroxyethyl)-4-hydroxybenzo[d]thiazol-2(3H)-one] are 110% and 56%.
On the same counts, the results for `CC(C)(C(=O)N1CCOC2(CCN(CCCCCCCCCNC[C@H](O)c3ccc(O)c4[nH]c(=O)sc34)CC2)C1)c1ccccc1` [Example 189, (R)-4-hydroxy-7-(1-hydroxy-2-(9-(4-(2-methyl-2-phenylpropanoyl)-1-oxa-4,9-diazaspiro[5.5]undecan-9-yl)nonylamino)ethyl)benzo[d]thiazol-2(3H)-one] are 93% and 96%.

Usually inhibition stands for the relative decrease from the control value, in per cent. The low end stands for a response near the control, the high end for a response far below the control.

Source of the values: US8148373B2, “Compounds” (AstraZeneca AB, priority 2008, dated 2012).
